Measurements published in ChEMBL document CHEMBL1201862, “PubChem BioAssay data set” (2004).
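Step 1: Grow cells in 96-well plates. Step 2: Expose to compound for 48 hours at 5 concentrations. Step 3: Interpolate endpoints linearly; if unreached, use highest concentration. GI50 marks 50% less growth.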 Calls of active or inactive are those of the source. Rule as the data show it: active = GI50 up to about 1.1 µM and inactive = higher.

Experiments:
Assay in all cases: inhibition of tumour cell growth, NCI panel, 48 h
[1] = test system: MDA-MB-435
[2] = test system: K562
[3] = test system: KM12
[4] = test system: M14
[5] = test system: MCF7
[6] = test system: HCT-15
[7] = test system: COLO 205
[8] = test system: LXFL 529
[9] = test system: ACHN
[10] = test system: SN12C
[11] = test system: SNB-75
[12] = test system: OVCAR-8
[13] = test system: NCI-H226
[14] = test system: CAKI-1
[15] = test system: A549
[16] = test system: SF-268
[17] = test system: SK-MEL-2
[18] = test system: LOX IMVI
[19] = test system: Malme-3M
[20] = test system: MDA-MB-231
[21] = test system: RXF 631
[22] = test system: NCI-H23
[23] = test system: RXF 393
[24] = test system: CCRF-CEM
[25] = test system: 786-0
[26] = test system: HOP-62
[27] = test system: NCI-H522
[28] = test system: SNB-78
[29] = test system: DU-145
[30] = test system: MOLT-4
[31] = test system: T47D
[32] = test system: SK-OV-3
[33] = test system: PC-3
[34] = test system: SF-539
[35] = test system: HOP-92
[36] = test system: SK-MEL-28
[37] = test system: UACC-62
[38] = test system: DLD-1
[39] = test system: EKVX
[40] = test system: NCI/ADR-RES
[41] = test system: SR
[42] = test system: SF-295
[43] = test system: OVCAR-5
[44] = test system: BT-549
[45] = test system: HOP-18
[46] = test system: DMS-114
[47] = test system: SNB-19
[48] = test system: A498
[49] = test system: IGROV-1
[50] = test system: HCT-116
[51] = test system: SW-620
[52] = test system: SK-MEL-5
[53] = test system: UACC-257
[54] = test system: NCI-H460
[55] = test system: HCC 2998
[56] = test system: HL-60
[57] = test system: U-251
[58] = test system: DMS-273
[59] = test system: MDA-N
[60] = test system: XF498
[61] = test system: UO-31
[62] = test system: KM-20L2
[63] = test system: RPMI-8226
[64] = test system: HT-29
[65] = test system: OVCAR-4
[66] = test system: M19-MEL
[67] = test system: Hs-578T
[68] = test system: OVCAR-3
[69] = test system: TK-10

For `O=C1C(Br)=C(Br)C(=O)c2ccc(=O)ccc21`, the GI50 [1] was 18.7 µM (inactive), the GI50 [2] was 30.7 µM (inactive) and the GI50 [3] was 46.8 µM (inactive). For the same compound, the GI50 [4] was 17.9 µM (inactive), the GI50 [5] was 18.6 µM (inactive) and the GI50 [6] was 18.7 µM. The GI50 [7] was 13.3 µM (inactive), the GI50 [8] was 17.7 µM (inactive) and the GI50 [9] was 17.6 µM (inactive). For the same compound, the GI50 [10] was 19.1 µM (inactive), the GI50 [11] was 57.9 µM (inactive) and the GI50 [12] was 22.3 µM (inactive). The GI50 [13] was > 53 µM (inactive), the GI50 [14] was 28.3 µM (inactive) and the GI50 [15] was 70.6 µM (inactive). The GI50 [16] was 30.3 µM (inactive), the GI50 [17] was 48.9 µM (inactive) and the GI50 [18] was 20.6 µM (inactive). For the same compound, the GI50 [19] was 19.9 µM (inactive), the GI50 [20] was 19.9 µM (inactive) and the GI50 [21] was 18.7 µM (inactive). For the same compound, the GI50 [22] was 21.2 µM (inactive), the GI50 [23] was 19.2 µM (inactive) and the GI50 [24] was 2.88 µM (inactive). The GI50 [25] was 18.3 µM (inactive), the GI50 [26] was 60.1 µM (inactive) and the GI50 [27] was 2.67 µM (inactive). For the same compound, the GI50 [28] was 29.3 µM (inactive), the GI50 [29] was > 100 µM (inactive) and the GI50 [30] was 3.36 µM (inactive). The GI50 [31] was 24.4 µM (inactive), the GI50 [32] was > 100 µM (inactive) and the GI50 [33] was > 56.5 µM (inactive). The GI50 [34] was 24.7 µM (inactive), the GI50 [35] was 18.5 µM (inactive) and the GI50 [36] was 27 µM (inactive). The GI50 [37] was 19.5 µM (inactive), the GI50 [38] was 22.3 µM (inactive) and the GI50 [39] was 36.6 µM (inactive). The GI50 [40] was 20 µM (inactive), the GI50 [41] was 26.1 µM (inactive) and the GI50 [42] was 33.2 µM (inactive). The GI50 [43] was 50.5 µM (inactive), the GI50 [44] was 24.2 µM (inactive) and the GI50 [45] was 24.2 µM (inactive). The GI50 [46] was 20.4 µM (inactive), the GI50 [47] was > 100 µM (inactive) and the GI50 [48] was > 100 µM (inactive). For the same compound, the GI50 [49] was > 52.2 µM (inactive), the GI50 [50] was 20 µM (inactive) and the GI50 [51] was 20.8 µM (inactive). For the same compound, the GI50 [52] was 21 µM (inactive), the GI50 [53] was 24.7 µM (inactive) and the GI50 [54] was 38.8 µM (inactive). For the same compound, the GI50 [55] was > 85.1 µM (inactive), the GI50 [56] was 8.47 µM (inactive) and the GI50 [57] was 38.3 µM (inactive). The GI50 [58] was 48 µM (inactive), the GI50 [59] was 22.6 µM (inactive) and the GI50 [60] was 24 µM (inactive). For the same compound, the GI50 [61] was 17.6 µM (inactive), the GI50 [62] was > 100 µM (inactive) and the GI50 [63] was 20 µM (inactive). For the same compound, the GI50 [64] was 30.8 µM (inactive), the GI50 [65] was 17.5 µM (inactive) and the GI50 [66] was 17.2 µM (inactive). For the same compound, the GI50 [67] was 26.4 µM (inactive), the GI50 [68] was 20.8 µM (inactive) and the GI50 [69] was 18.7 µM (inactive).

With `COc1cc(=O)oc(/C=C/C=O)c1C` the GI50 [2] was 8.53 µM (inactive), the GI50 [3] was 21.9 µM (inactive) and the GI50 [4] was 17.9 µM (inactive). For the same compound, the GI50 [7] was 16.4 µM (inactive), the GI50 [8] was 17.1 µM (inactive) and the GI50 [9] was 19.2 µM (inactive). The GI50 [10] was 8.24 µM (inactive), the GI50 [11] was 16.3 µM (inactive) and the GI50 [12] was 26.3 µM (inactive). The GI50 [13] was 31.2 µM (inactive), the GI50 [14] was 33 µM (inactive) and the GI50 [15] was > 100 µM (inactive). For the same compound, the GI50 [16] was 13.6 µM (inactive), the GI50 [18] was 5.2 µM (inactive) and the GI50 [19] was 21.7 µM (inactive). The GI50 [21] was 14.7 µM (inactive), the GI50 [22] was 21.9 µM (inactive) and the GI50 [23] was 18.8 µM (inactive). The GI50 [24] was 5.36 µM (inactive), the GI50 [25] was 20.7 µM (inactive) and the GI50 [26] was 19.5 µM (inactive). For the same compound, the GI50 [27] was 19.8 µM (inactive), the GI50 [28] was > 10 µM (inactive) and the GI50 [30] was 27.5 µM (inactive). For the same compound, the GI50 [32] was 27.2 µM (inactive), the GI50 [34] was 18.7 µM (inactive) and the GI50 [35] was 26.9 µM (inactive). For the same compound, the GI50 [36] was 12.6 µM (inactive), the GI50 [37] was 16 µM (inactive) and the GI50 [38] was 16 µM (inactive). The GI50 [39] was 35.7 µM (inactive), the GI50 [41] was 2.79 µM (inactive) and the GI50 [42] was 15.8 µM (inactive). The GI50 [43] was 38.3 µM (inactive), the GI50 [45] was 18 µM (inactive) and the GI50 [46] was 12.7 µM (inactive). For the same compound, the GI50 [47] was 14.8 µM (inactive), the GI50 [48] was > 100 µM (inactive) and the GI50 [49] was 30.4 µM (inactive). For the same compound, the GI50 [50] was 5.21 µM (inactive), the GI50 [51] was 19.4 µM (inactive) and the GI50 [52] was 20.6 µM (inactive). For the same compound, the GI50 [53] was 18.9 µM (inactive), the GI50 [55] was 17.9 µM (inactive) and the GI50 [56] was 13.5 µM (inactive). For the same compound, the GI50 [57] was 14.3 µM (inactive), the GI50 [58] was 17.2 µM (inactive) and the GI50 [60] was 17 µM (inactive). For the same compound, the GI50 [61] was 20.8 µM (inactive), the GI50 [62] was 16.8 µM (inactive) and the GI50 [64] was 19.9 µM (inactive). For the same compound, the GI50 [65] was 17 µM (inactive), the GI50 [66] was 18.1 µM (inactive) and the GI50 [68] was 19 µM (inactive). For the same compound, the GI50 [69] was 31.2 µM (inactive).
